Results from patent publication EP4755877A1, “MODIFIED FLAVONE COMPOUNDS AND USE THEREOF” (Suzhou Glenkol Pharma Technology Co., Ltd., priority 2023, dated 2025).
Where two headings read alike, the source gives them in different places.

Tests used:
[1] = system: PC-12 cells; assay: Glutamate-induced excitotoxic death of PC-12 cells, survival by propidium iodide/Hoechst staining; format: cell-based, rat; settings: for Enhancement of Cell Survival Rate: PC-12 cells, glutamate-induced death, compound at 100 nM; for EC50: Rattus norvegicus, promotion of PC-12 survival under glutamate stimulation, 30 min pretreatment, 1 pM-100 µM, 24 h glutamate
Experimental: PC-12 cells (a […] cell line derived from rat adrenal medulla) were cultured in DMEM/F12 complete medium until 80-90% confluency. After being digested, collected, and resuspended, the cells were seeded into 24-well plates pre-coated with coverslips at a density of 5×10^4 cells per well. Following 26 hours of cell culture, glutamate-induced excitotoxic cell death modeling was performed. The modeling method was as follows: an appropriate amount of glutamate was weighed and dissolved in DMEM/F12 medium to prepare a stock solution; after filtration, the stock solution was diluted with the same medium, and the cells were administered with the diluted solution by medium replacement. After administration, the cells were further incubated for 24 hours.
Prior to glutamate modeling, cells incubated in the previous step were pretreated with small-molecule compounds listed in Table 1 at concentrations of 1 pM, 10 pM, 100 pM, 1 nM, 10 nM, 100 nM, 1 µM, 10 µM, and 100 µM for 30 minutes, followed by glutamate stimulation.
The cells treated with the compounds were stained with propidium iodide to assess cell death. After the medium was discarded, the cells were washed with PBS. Subsequently, propidium iodide/Hoechst was added. Following incubation for 30 minutes, the staining solution was removed, and the cells were washed with PBS again before being fixed and mounted on slides. Image acquisition was performed under a fluorescence microscope. The propidium iodide-positive cells and Hoechst-positive cells in the collected images were counted to calculate the cell survival rate. The survival rate was calculated using the formula: Cell survival rate = (1 - Number of Propidium Iodide-positive cells / Number of Hoechst-positive cells) × 100%. The gradient concentrations of the small molecule compounds and the corresponding normalized survival rates were imported into Prism software, and EC50 values were calculated using a non-linear regression model. 7,8-dihydroxyflavone was used as the positive control drug. Table 1: Dose-response relationship study of various compounds in promoting PC-12 neurocytes survival
Based on the aforementioned dose-response relationship study of the compounds, the inhibitory effects of different small molecule compounds on glutamate-induced excitotoxic death of PC-12 cells were further compared at the same dose (100 nM). Table 2: Study on the promoting effects of various compounds on PC-12 neurocytes survival

[2] = Pharmacokinetics in rats after intravenous and oral gavage dosing, plasma LC-MS/MS; format: in vivo; settings: rat
Experimental: Preparation of intravenous bolus administration formulations: A graduation line for the final volume was marked on a clean and dry container. An appropriate amount of the test sample was weighed and added to the container to prepare a solution with a final concentration of 1 mg/mL.
Preparation of oral gavage administration formulations: A graduation line for the final volume was marked on a clean and dry container. An appropriate amount of the test sample was weighed and added to the container to prepare a solution with a final concentration of 3 mg/mL.
After preparation, the formulations were stored at room temperature and used on the day of preparation. A total of 2 groups of rats were set up, with […] per group (half male and half female). The compounds were administered to the rats at a dose of 1 mg/kg via intravenous injection and 15 mg/kg via oral gavage, respectively. All animals were allowed free access to food and water.
Intravenous administration: Before administration (0 h) and at 0.083, 0.167, 0.5, 1.0, 2.0, 4.0, 6.0, and 24 h after administration, 0.2 mL of blood samples were collected from the jugular vein and transferred to anticoagulant tubes (pre-cooled in advance for at least 5 minutes). The tubes were gently inverted several times to fully mix the blood with the anticoagulant. The blood samples were centrifuged at 4 °C for 10 minutes to separate the plasma. 95 µ L of plasma was collected and transferred to a centrifuge tube, which was stored in a refrigerator at below -80 °C until analysis.
Single oral gavage administration: Before administration (0 h) and at 0.167, 0.5, 1.0, 2.0, 4.0, 6.0, and 24 h after administration, 0.2 mL of blood samples were collected from the jugular vein and transferred to anticoagulant tubes. The sample processing method was the same as described above.
The concentration of the compounds in plasma was determined by LC-MS/MS, and data acquisition was performed using Analyst 1.6.3 software (AB Sciex). The pharmacokinetic parameters of the rats after administration were calculated using the non-compartmental model in Phoenix WinNonlin software.
7,8-dihydroxyflavone served as the control drug for comparing the pharmacokinetic characteristics of various compound. Table 3: PK parameters of various compound

[3] = both sexes, Sprague-Dawley, SD rats, plasma, 15 mg/kg oral gavage / 1 mg/kg intravenous, table does not state the route
[4] = in vivo, SD rats, plasma, 15 mg/kg oral gavage / 1 mg/kg intravenous, table does not state the route
[5] = in vivo, SD rats, 15 mg/kg oral gavage vs 1 mg/kg intravenous, read-out: Oral Bioavailability F (%)
[6] = in vivo, SD rats, plasma, 15 mg/kg oral gavage / 1 mg/kg intravenous, table does not state the route, read-out: t1/2 (converted)

In the case of `O=c1cc(-c2ccccc2)oc2c(O)c(O)ccc12` [7,8-dihydroxyflavone, 7,8-dihydroxyflavone, reference compound], the “Enhancement of Cell Survival Rate” value [1] is reported as 33.58%, the EC50 [1] is reported as 0.159 nM and the bioavailability ([2]; both sexes, Sprague-Dawley, plasma, SD rats, 15 mg/kg oral gavage vs 1 mg/kg intravenous, read-out: Oral Bioavailability F (%)) is reported as 1.9%. It also gave an AUC(0-t) [2, 3] of 0.1 µM·h, a Cmax [2, 3] of 75.1 nM and a half-life ([2]; both sexes, Sprague-Dawley, SD rats, plasma, 15 mg/kg oral gavage / 1 mg/kg intravenous, table does not state the route, read-out: t1/2 (converted)) of 3.32 h.

Compound `O=c1cc(-c2ccccc2)oc2c(F)c(O)ccc12` [Compound S1] has an EC50 [1] of 0.012 nM, an AUC(0-t) [2, 4] of 0.181 µM·h and a Cmax [2, 4] of 94.9 nM.

Work on `O=C(O)[C@H]1O[C@@H](Oc2c(O)ccc3c(=O)cc(-c4ccccc4)oc23)[C@H](O)[C@@H](O)[C@@H]1O` [Compound S7] yielded an EC50 [1] of 0.0111 nM, an AUC(0-t) [2, 4] of 2.36 µM·h and a Cmax [2, 4] of 245 nM. For the same compound, the bioavailability [2, 5] was 66.9%.

For `O=c1cc(C2CCNCC2)oc2c(O)c(O)ccc12` [Compound S12], the EC50 [1] was < 0.001 nM, the AUC(0-t) [2, 4] was 0.151 µM·h and the Cmax [2, 4] was 113 nM. The half-life [2, 6] was 1.84 h and the bioavailability [2, 5] was 1.9%.

For `[2H]c1c([2H])c([2H])c(-c2cc(=O)c3ccc(O[C@@H]4O[C@H](C(=O)O)[C@@H](O)[C@H](O)[C@H]4O)c(O)c3o2)c([2H])c1[2H]` [Compound S25], the Cmax [2, 4] was 3590 nM, the half-life [2, 6] was 5.38 h and the bioavailability [2, 5] was 52%.

Compound `O=c1cc(C2CCNCC2)oc2c(F)c(O)ccc12` [Compound S26] has an AUC(0-t) [2, 4] of 0.252 µM·h, a Cmax [2, 4] of 68.1 nM and a half-life [2, 6] of 4.54 h.

For `O=c1cc(C2CCNCC2)oc2c(O[C@@H]3OC[C@@H](O)[C@H](O)[C@H]3O)c(O)ccc12` [Compound S27], the half-life ([2]; in vivo) was 1.77 h.

For `O=c1cc(C2CCNCC2)oc2c(O[C@@H]3O[C@H](CO)[C@@H](O)[C@H](O)[C@H]3O)c(O)ccc12` [Compound S28], the “Enhancement of Cell Survival Rate” value [1] was 43.06%, the half-life ([2]; in vivo) was 16.7 h and the bioavailability ([2]; in vivo, po, 15 mg/kg) was 2.72%.

With `COc1ccc2c(=O)cc(C3CCNCC3)oc2c1O` [Compound S29] the “Enhancement of Cell Survival Rate” value [1] was 73.51%, the AUC(0-t) [2, 4] was 0.331 µM·h and the Cmax [2, 4] was 91.3 nM. The half-life [2, 6] was 2.57 h and the bioavailability [2, 5] was 3.38%.

With `O=c1cc(C2CCNCC2)oc2c(F)c(F)ccc12` [Compound S30] the “Enhancement of Cell Survival Rate” value [1] was 83.78%, the AUC(0-t) [2, 4] was 10.3 µM·h and the Cmax [2, 4] was 1260 nM. The half-life [2, 6] was 11.4 h and the bioavailability [2, 5] was 112%.
